{"source": "ChEMBL document CHEMBL3217546", "about": "“The synthesis and receptor binding affinities of DDD-016, a novel, potential, atypical antipsychotic” (Medchemcomm, 2012)", "key": {"[1]": {"target": "5-hydroxytryptamine receptor 1B (Homo sapiens, UniProt P28222)", "sequence (P28222 whole entry)": "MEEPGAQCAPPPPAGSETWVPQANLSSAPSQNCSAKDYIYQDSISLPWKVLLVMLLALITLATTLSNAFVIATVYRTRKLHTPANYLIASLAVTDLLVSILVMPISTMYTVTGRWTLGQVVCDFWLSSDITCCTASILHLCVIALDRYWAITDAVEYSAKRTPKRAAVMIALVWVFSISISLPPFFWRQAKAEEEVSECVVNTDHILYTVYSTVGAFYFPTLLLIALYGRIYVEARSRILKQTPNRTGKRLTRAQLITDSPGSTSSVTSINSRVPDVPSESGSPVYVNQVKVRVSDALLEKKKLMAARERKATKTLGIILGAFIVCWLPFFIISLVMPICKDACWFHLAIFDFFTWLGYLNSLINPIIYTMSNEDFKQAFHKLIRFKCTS", "description": "Binding affinity to serotonin 5-HT1B receptor (unknown origin) by PDSP assay"}, "[2]": {"target": "Alpha-1B adrenergic receptor (Homo sapiens, UniProt P35368)", "sequence (P35368 whole entry)": "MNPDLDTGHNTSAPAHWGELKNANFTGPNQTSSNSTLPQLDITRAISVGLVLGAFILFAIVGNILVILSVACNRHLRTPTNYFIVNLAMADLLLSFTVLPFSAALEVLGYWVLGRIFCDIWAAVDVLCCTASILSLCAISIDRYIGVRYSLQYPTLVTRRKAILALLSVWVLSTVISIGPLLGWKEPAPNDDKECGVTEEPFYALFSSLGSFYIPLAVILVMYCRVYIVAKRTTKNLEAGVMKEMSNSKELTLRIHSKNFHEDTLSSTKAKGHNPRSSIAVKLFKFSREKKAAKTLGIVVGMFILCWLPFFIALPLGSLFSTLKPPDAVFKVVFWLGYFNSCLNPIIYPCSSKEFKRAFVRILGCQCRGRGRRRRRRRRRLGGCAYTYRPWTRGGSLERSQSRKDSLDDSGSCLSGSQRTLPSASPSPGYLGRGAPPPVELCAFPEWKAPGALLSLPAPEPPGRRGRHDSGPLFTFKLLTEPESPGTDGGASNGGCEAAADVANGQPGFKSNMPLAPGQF", "description": "Binding affinity to adrenergic alpha1B receptor (unknown origin) by PDSP assay"}, "[3]": {"target": "5-hydroxytryptamine receptor 5A (Homo sapiens, UniProt P47898)", "sequence (P47898 whole entry)": "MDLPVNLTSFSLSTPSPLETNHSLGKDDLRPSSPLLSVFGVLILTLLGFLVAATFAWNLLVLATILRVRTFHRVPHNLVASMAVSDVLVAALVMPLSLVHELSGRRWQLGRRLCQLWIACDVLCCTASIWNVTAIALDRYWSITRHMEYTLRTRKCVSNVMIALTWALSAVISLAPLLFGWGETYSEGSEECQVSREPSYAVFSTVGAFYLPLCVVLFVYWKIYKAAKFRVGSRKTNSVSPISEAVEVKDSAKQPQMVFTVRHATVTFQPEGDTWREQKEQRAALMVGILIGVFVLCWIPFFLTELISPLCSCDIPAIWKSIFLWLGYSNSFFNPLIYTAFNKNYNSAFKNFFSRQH", "description": "Binding affinity to serotonin 5-HT5A receptor (unknown origin) by PDSP assay"}, "D(1B) dopamine receptor": {"target": "D(1B) dopamine receptor (Homo sapiens, UniProt P21918)", "sequence (P21918 whole entry)": "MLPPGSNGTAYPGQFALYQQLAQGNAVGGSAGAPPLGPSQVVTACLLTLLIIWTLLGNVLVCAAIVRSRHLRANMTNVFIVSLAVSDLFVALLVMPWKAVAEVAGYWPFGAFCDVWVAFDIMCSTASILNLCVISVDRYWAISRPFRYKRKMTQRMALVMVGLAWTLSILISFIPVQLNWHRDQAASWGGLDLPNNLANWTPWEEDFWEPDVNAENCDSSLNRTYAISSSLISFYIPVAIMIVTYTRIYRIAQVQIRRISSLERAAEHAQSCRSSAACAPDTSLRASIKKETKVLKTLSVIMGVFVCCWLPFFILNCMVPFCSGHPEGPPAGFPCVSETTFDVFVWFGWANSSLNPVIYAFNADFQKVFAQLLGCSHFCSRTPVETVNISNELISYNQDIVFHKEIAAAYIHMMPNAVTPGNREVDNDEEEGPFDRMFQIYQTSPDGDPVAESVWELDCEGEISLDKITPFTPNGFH"}, "[4]": {"target": "5-hydroxytryptamine receptor 1E (Homo sapiens, UniProt P28566)", "sequence (P28566 whole entry)": "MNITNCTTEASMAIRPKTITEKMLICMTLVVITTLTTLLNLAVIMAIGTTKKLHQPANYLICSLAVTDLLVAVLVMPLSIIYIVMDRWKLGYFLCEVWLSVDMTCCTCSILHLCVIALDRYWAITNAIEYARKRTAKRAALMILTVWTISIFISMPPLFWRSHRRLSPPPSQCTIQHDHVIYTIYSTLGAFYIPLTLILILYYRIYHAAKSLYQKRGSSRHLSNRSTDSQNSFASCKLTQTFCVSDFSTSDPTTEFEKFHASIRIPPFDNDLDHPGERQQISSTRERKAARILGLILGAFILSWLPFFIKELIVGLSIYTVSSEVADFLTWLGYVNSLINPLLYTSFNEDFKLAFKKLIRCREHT", "description": "Binding affinity to serotonin 5-HT1E receptor (unknown origin) by PDSP assay"}, "[5]": {"target": "Alpha-2C adrenergic receptor (Homo sapiens, UniProt P18825)", "description": "Binding affinity to adrenergic alpha2C receptor (unknown origin) by PDSP assay"}, "D(2) dopamine receptor [6]": {"target": "T1, D(2) dopamine receptor (Homo sapiens, UniProt P14416)", "T1 sequence (P14416 whole entry)": "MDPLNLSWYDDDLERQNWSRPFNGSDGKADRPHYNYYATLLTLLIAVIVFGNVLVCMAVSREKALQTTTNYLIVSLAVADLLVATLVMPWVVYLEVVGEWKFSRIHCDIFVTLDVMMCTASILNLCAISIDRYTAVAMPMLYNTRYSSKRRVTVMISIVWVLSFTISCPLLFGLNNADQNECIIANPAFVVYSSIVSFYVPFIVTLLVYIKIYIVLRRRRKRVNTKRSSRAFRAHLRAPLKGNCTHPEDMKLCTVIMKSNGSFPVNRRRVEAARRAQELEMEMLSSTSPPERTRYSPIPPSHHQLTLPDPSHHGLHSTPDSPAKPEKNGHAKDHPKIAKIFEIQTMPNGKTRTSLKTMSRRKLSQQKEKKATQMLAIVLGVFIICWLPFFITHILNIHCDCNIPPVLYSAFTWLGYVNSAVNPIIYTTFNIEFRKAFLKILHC", "experiment": "Agonist activity at dopamine D2 receptor (unknown origin) relative to serotonin", "conditions": "concentration not given here"}, "Rattus norvegicus [7]": {"tested_on": "Rattus norvegicus", "experiment": "Inhibition of pre-pulse in ip dosed rat", "assay_type": "functional, organism-based"}, "D(2) dopamine receptor [8]": {"target": "T1, D(2) dopamine receptor", "description": "Binding affinity to dopamine D2 receptor (unknown origin) by PDSP assay"}, "[9]": {"target": "5-hydroxytryptamine receptor 3A (Homo sapiens, UniProt P46098)", "sequence (P46098 whole entry)": "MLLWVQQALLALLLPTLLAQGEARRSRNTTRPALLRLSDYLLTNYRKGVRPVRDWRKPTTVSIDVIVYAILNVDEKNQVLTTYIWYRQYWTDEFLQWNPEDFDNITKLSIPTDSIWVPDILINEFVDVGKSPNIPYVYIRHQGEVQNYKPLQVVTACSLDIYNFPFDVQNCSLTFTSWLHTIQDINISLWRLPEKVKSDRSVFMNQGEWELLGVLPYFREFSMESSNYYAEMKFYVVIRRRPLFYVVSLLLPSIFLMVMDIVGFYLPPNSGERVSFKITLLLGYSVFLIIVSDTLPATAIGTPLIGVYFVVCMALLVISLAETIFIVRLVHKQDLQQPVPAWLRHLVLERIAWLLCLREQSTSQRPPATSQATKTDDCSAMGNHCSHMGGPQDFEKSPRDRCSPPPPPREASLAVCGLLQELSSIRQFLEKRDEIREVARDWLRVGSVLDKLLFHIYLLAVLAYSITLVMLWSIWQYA", "description": "Binding affinity to serotonin 5-HT3 receptor (unknown origin) by PDSP assay"}, "Rattus norvegicus [10]": {"tested_on": "Rattus norvegicus", "experiment": "Toxicity in po dosed rat assessed as abnormal metabolic changes after 2 weeks relative to control", "assay_type": "organism-based", "conditions": "in vivo, 336 h"}, "[11]": {"target": "Muscarinic acetylcholine receptor M5 (Homo sapiens, UniProt P08912)", "sequence (P08912 whole entry)": "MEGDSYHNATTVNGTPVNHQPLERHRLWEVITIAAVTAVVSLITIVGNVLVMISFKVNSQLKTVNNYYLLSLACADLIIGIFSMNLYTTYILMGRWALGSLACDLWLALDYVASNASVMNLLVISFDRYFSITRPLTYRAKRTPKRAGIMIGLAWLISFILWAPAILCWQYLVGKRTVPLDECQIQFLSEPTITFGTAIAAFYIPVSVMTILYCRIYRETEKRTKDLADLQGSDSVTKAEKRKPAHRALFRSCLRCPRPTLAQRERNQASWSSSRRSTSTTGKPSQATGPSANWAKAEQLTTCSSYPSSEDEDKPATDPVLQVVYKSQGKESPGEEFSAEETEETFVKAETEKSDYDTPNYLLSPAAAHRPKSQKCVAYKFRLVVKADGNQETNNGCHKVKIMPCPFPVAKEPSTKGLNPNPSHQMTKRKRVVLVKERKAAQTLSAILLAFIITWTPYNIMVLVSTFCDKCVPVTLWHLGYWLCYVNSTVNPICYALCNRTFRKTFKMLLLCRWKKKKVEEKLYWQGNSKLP", "description": "Binding affinity to M5 receptor (unknown origin) by PDSP assay"}, "[12]": {"target": "Muscarinic acetylcholine receptor M2 (Homo sapiens, UniProt P08172)", "description": "Binding affinity to M2 receptor (unknown origin) by PDSP assay"}, "D(3) dopamine receptor": {"target": "D(3) dopamine receptor (Homo sapiens, UniProt P35462)", "sequence (P35462 whole entry)": "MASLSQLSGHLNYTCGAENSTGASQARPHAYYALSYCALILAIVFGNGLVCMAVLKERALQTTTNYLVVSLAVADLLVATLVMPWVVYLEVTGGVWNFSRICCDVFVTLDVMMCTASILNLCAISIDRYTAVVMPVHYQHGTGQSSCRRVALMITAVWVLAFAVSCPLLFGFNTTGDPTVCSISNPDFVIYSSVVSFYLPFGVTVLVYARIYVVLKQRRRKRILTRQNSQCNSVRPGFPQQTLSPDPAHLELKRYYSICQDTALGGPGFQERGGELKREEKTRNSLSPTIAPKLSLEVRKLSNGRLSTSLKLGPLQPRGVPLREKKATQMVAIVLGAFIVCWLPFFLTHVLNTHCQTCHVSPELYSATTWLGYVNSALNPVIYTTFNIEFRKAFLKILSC", "description": "Binding affinity to dopamine D3 receptor (unknown origin) by PDSP assay"}, "[13]": {"target": "5-hydroxytryptamine receptor 1A (Homo sapiens, UniProt P08908)", "description": "Binding affinity to serotonin 5-HT1A receptor (unknown origin) by PDSP assay"}, "[14]": {"target": "T2, 5-hydroxytryptamine receptor 2A (Homo sapiens, UniProt P28223)", "T2 sequence (P28223 whole entry)": "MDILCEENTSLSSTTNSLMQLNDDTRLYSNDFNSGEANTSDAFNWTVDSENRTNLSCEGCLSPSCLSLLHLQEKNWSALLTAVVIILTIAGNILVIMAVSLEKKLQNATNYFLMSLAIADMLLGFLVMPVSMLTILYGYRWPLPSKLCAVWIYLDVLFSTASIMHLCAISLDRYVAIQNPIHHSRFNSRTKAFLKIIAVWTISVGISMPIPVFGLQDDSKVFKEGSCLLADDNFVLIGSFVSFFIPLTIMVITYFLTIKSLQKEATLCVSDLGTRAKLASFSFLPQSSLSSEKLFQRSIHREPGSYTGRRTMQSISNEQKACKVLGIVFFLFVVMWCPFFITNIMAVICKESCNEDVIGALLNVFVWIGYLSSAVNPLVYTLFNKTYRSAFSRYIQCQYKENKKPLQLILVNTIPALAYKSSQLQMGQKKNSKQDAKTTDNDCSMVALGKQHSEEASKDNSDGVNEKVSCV", "description": "Binding affinity to serotonin 5-HT2A receptor (unknown origin) by PDSP assay"}, "Rattus norvegicus [15]": {"tested_on": "Rattus norvegicus", "experiment": "Toxicity in po dosed rat assessed as change in renal parameter after 2 weeks relative to control", "assay_type": "organism-based", "conditions": "in vivo, 336 h"}, "Histamine H2 receptor": {"target": "Histamine H2 receptor (Homo sapiens, UniProt P25021)", "experiment": "Binding affinity to H2 histamine receptor (unknown origin) by PDSP assay"}, "Rattus norvegicus [16]": {"tested_on": "Rattus norvegicus", "experiment": "Toxicity in po dosed rat assessed as elevation in liver enzyme level after 2 weeks relative to control", "assay_type": "organism-based", "conditions": "in vivo, 336 h"}, "[17]": {"target": "T2, 5-hydroxytryptamine receptor 2A", "experiment": "Antagonist activity at 5-HT2A receptor (unknown origin) relative to ketanserin", "conditions": "concentration not given here"}, "[18]": {"target": "Muscarinic acetylcholine receptor M4 (Homo sapiens, UniProt P08173)", "description": "Binding affinity to M4 receptor (unknown origin) by PDSP assay"}, "[19]": {"target": "Muscarinic acetylcholine receptor M3 (Homo sapiens, UniProt P20309)", "description": "Binding affinity to M3 receptor (unknown origin) by PDSP assay"}, "[20]": {"target": "5-hydroxytryptamine receptor 2B (Homo sapiens, UniProt P41595)", "experiment": "Binding affinity to serotonin 5-HT2B receptor (unknown origin) by PDSP assay"}, "[21]": {"target": "Alpha-1A adrenergic receptor (Homo sapiens, UniProt P35348)", "description": "Binding affinity to adrenergic alpha1A receptor (unknown origin) by PDSP assay"}, "D(2) dopamine receptor [22]": {"target": "T1, D(2) dopamine receptor", "experiment": "Antagonist activity at dopamine D2 receptor (unknown origin) relative to ketanserin", "conditions": "concentration not given here"}, "[23]": {"target": "5-hydroxytryptamine receptor 1D (Homo sapiens, UniProt P28221)", "description": "Binding affinity to serotonin 5-HT1D receptor (unknown origin) by PDSP assay"}, "[24]": {"target": "5-hydroxytryptamine receptor 2C (Homo sapiens, UniProt P28335)", "description": "Binding affinity to serotonin 5-HT2C receptor (unknown origin) by PDSP assay"}, "[25]": {"target": "T2, 5-hydroxytryptamine receptor 2A", "experiment": "Agonist activity at 5-HT2A receptor (unknown origin) relative to serotonin", "conditions": "concentration not given here"}, "[26]": {"target": "Alpha-1D adrenergic receptor (Homo sapiens, UniProt P25100)", "experiment": "Binding affinity to adrenergic alpha1D receptor (unknown origin) by PDSP assay"}, "[27]": {"target": "Alpha-2A adrenergic receptor (Homo sapiens, UniProt P08913)", "description": "Binding affinity to adrenergic alpha2A receptor (unknown origin) by PDSP assay"}, "[28]": {"target": "5-hydroxytryptamine receptor 4 (Homo sapiens, UniProt Q13639)", "experiment": "Binding affinity to serotonin 5-HT4 receptor (unknown origin) by PDSP assay"}, "D(1A) dopamine receptor": {"target": "D(1A) dopamine receptor (Homo sapiens, UniProt P21728)", "description": "Binding affinity to dopamine D1 receptor (unknown origin) by PDSP assay"}, "[29]": {"target": "5-hydroxytryptamine receptor 6 (Homo sapiens, UniProt P50406)", "sequence (P50406 whole entry)": "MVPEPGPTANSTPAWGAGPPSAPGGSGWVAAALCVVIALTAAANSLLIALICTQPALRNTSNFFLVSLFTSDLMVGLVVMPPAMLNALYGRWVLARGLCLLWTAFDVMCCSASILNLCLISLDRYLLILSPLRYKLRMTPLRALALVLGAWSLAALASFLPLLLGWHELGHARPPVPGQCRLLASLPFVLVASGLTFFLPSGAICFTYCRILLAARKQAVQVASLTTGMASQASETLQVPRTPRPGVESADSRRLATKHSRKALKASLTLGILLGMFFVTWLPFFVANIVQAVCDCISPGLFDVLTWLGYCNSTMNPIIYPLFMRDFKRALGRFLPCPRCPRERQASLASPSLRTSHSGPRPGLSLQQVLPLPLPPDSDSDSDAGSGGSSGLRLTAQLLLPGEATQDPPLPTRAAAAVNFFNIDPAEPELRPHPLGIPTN", "description": "Binding affinity to serotonin 5-HT6 receptor (unknown origin) by PDSP assay"}, "[30]": {"target": "Muscarinic acetylcholine receptor M1 (Homo sapiens, UniProt P11229)", "description": "Binding affinity to M1 receptor (unknown origin) by PDSP assay"}, "Rattus norvegicus [31]": {"tested_on": "Rattus norvegicus", "experiment": "Toxicity in po dosed rat assessed as weight gain after 2 weeks relative to control", "assay_type": "organism-based", "conditions": "in vivo, 336 h"}, "[32]": {"target": "5-hydroxytryptamine receptor 7 (Homo sapiens, UniProt P34969)", "description": "Binding affinity to serotonin 5-HT7 receptor (unknown origin) by PDSP assay"}}, "note": "The source made the active and inactive calls. The calls are words filed in the database; no cut-off is given here.", "data": [{"molecule": "OCCOCCN1CCN(C2=Nc3ccccc3Sc3ccccc32)CC1", "note": "[QUETIAPINE]", "values": [{"measurement": "Ki", "setting": "[1]", "result": "> 1", "unit": "µM"}, {"measurement": "Ki", "setting": "[2]", "result": 0.1, "unit": "µM"}, {"measurement": "Ki", "setting": "[3]", "result": "> 1", "unit": "µM"}, {"measurement": "Ki", "setting": "D(1B) dopamine receptor", "result": "> 1", "unit": "µM"}, {"measurement": "Ki", "setting": "[4]", "result": "> 1", "unit": "µM"}]}, {"molecule": "CN1CCC2C(C1)c1cccc3c1N2c1ccccc1CS3", "note": "(stereo not drawn)", "values": [{"measurement": "Ki", "setting": "[5]", "result": 0.0316, "unit": "µM"}, {"measurement": "Ki", "setting": "[1]", "result": 0.316, "unit": "µM"}, {"measurement": "inhibition", "setting": "D(2) dopamine receptor [6]", "result": 0, "unit": "%"}, {"measurement": "inhibition", "setting": "Rattus norvegicus [7]", "result": "Active"}, {"measurement": "Ki", "setting": "D(2) dopamine receptor [8]", "result": 0.126, "unit": "µM"}, {"measurement": "Ki", "setting": "[9]", "result": 0.631, "unit": "µM"}, {"measurement": "Activity", "setting": "Rattus norvegicus [10]", "result": "Non-toxic"}, {"measurement": "Ki", "setting": "[11]", "result": 0.794, "unit": "µM"}, {"measurement": "Ki", "setting": "[12]", "result": "> 1", "unit": "µM"}, {"measurement": "Ki", "setting": "[2]", "result": "> 1", "unit": "µM"}, {"measurement": "Ki", "setting": "D(3) dopamine receptor", "result": 0.0316, "unit": "µM"}, {"measurement": "Ki", "setting": "[13]", "result": 0.0398, "unit": "µM"}, {"measurement": "Ki", "setting": "[14]", "result": 0.002, "unit": "µM"}, {"measurement": "Activity", "setting": "Rattus norvegicus [15]", "result": "Non-toxic"}, {"measurement": "Ki", "setting": "Histamine H2 receptor", "result": 0.0794, "unit": "µM"}, {"measurement": "Activity", "setting": "Rattus norvegicus [16]", "result": "Non-toxic"}, {"measurement": "inhibition", "setting": "[17]", "result": 101, "unit": "%"}, {"measurement": "Ki", "setting": "[18]", "result": "> 1", "unit": "µM"}, {"measurement": "Ki", "setting": "[19]", "result": "> 1", "unit": "µM"}, {"measurement": "Ki", "setting": "[20]", "result": 0.00501, "unit": "µM"}, {"measurement": "Ki", "setting": "[21]", "result": 0.501, "unit": "µM"}, {"measurement": "inhibition", "setting": "D(2) dopamine receptor [22]", "result": 95, "unit": "%"}, {"measurement": "Ki", "setting": "[23]", "result": 0.0631, "unit": "µM"}, {"measurement": "Ki", "setting": "[24]", "result": 0.00794, "unit": "µM"}, {"measurement": "inhibition", "setting": "[25]", "result": 4, "unit": "%"}, {"measurement": "Ki", "setting": "[26]", "result": 0.794, "unit": "µM"}, {"measurement": "Ki", "setting": "[27]", "result": 0.0631, "unit": "µM"}, {"measurement": "Ki", "setting": "[28]", "result": "> 1", "unit": "µM"}, {"measurement": "Ki", "setting": "D(1A) dopamine receptor", "result": 0.0251, "unit": "µM"}, {"measurement": "Ki", "setting": "[29]", "result": 0.0158, "unit": "µM"}, {"measurement": "Ki", "setting": "[30]", "result": "> 1", "unit": "µM"}, {"measurement": "Activity", "setting": "Rattus norvegicus [31]", "result": "Non-toxic"}, {"measurement": "Ki", "setting": "[32]", "result": 0.0794, "unit": "µM"}, {"measurement": "Ki", "setting": "[4]", "result": 2.51, "unit": "µM"}]}, {"molecule": "Cc1cc2c(s1)Nc1ccccc1N=C2N1CCN(C)CC1", "note": "[OLANZAPINE]", "values": [{"measurement": "Ki", "setting": "[9]", "result": 1, "unit": "µM"}, {"measurement": "Ki", "setting": "[3]", "result": "> 1", "unit": "µM"}, {"measurement": "Ki", "setting": "D(1B) dopamine receptor", "result": 0.1, "unit": "µM"}]}, {"molecule": "CN1CCN(C2=Nc3cc(Cl)ccc3Nc3ccccc32)CC1", "note": "[CLOZAPINE]", "values": [{"measurement": "Ki", "setting": "[3]", "result": "> 1", "unit": "µM"}]}]}
